From patent US20230061352A1, “DRUG DELIVERY DEVICE” (priority 2020, published 2023)
“Also recorded” adds a separate entry of the source.

Columns and labels:
[1] = Qualitative sample analysis (Q1 test) of released drug by LCMS; assay type: physicochemical; details: drug released from the device; chromatograms, FIGS. 7 and 8
Procedure: Qualitative sample analysis (or Q1 test) was performed on select samples to assure single spikes were detected at frequencies consistent with calibration curves and that no secondary spikes were detected (indicating LCMS detection of single molecules without breakdown products).

[2] = LCMS drug levels in porcine lymph tissue from the anterior jugular chain; assay type: in vivo, pig; details: released from implanted device; necropsy at 0, 48, 120, 240 and 336 hrs; FIGS. 12 and 13
Text: (§1) Devices produced in accordance with the methods of EXAMPLE 1 were implanted into tonsillectomized pigs.
(§2) The specific LCMS method used for detection of Bupivacaine and Lidocaine has been validated in work by Hoizey et al (2005) (Hoizey G, et al. Sensitive bioassay of bupivacaine in human plasma by liquid-chromatography-ion trap mass spectrometry. Journal of pharmaceutical and biomedical analysis. 2005; 39:587-92).
(§3) The specific LCMS method used for detection of Bupivacaine and Lidocaine has been validated in work by Hoizey et al (2005).

[3] = LCMS drug levels in porcine serum from the internal jugular vein; assay type: in vivo, pig; details: released from implanted device; 0, 1, 2, 4, 24, 48, 72, 120, 240, 336 hrs; FIGS. 14 and 15
Text: as §1, §2, §3

CCN(CC)CC(=O)Nc1c(C)cccc1C [lignocaine]
integrity of the released drug molecule (no breakdown products) [1]: active form is preserved; also recorded: complete, intact lignocaine molecule
drug level detected in locoregional (lymph) tissue [2]: < 5.6 microgram per ml

CCCCN1CCCCC1C(=O)Nc1c(C)cccc1C (centres unmarked) [bupivacaine]
integrity of the released drug molecule (no breakdown products) [1]: active form is preserved; also recorded: complete, intact bupivacaine molecule
drug level detected in locoregional (lymph) tissue [2]: < 4 microgram per ml
drug level detected in serum (systemic uptake) [3]: < 4 microgram per ml
